pIC50: −log10 of the molar value.
What was measured:
IGF-1R [1] = target: T1, IGF-1R (Homo sapiens (Human), UniProt P08069); assay: Example B-2: IGF-1R Assay (PathHunter cell lines, EC80 agonist challenge); format: cell-based; conditions: read-out: IC50 (Biological Activity against IGF-1R)
Protocol: PathHunter cell lines were expanded from freezer stocks according to standard procedures. Cells were seeded in a total volume of 20 μL into white walled, 384-well microplates and incubated for the appropriate time prior to testing.
Cells are pre-incubated with compound followed by EC80 agonist challenge as follows: • 1. Intermediate dilution of sample stocks was performed to generate 5× sample in assay buffer. • 2. 5 μL of 5× sample was added to cells and incubated at 37° C. for 60 minutes. Vehicle concentration was 1%. • 3. 5 μL of 6×EC80 agonist in assay buffer was added to the cells and incubated at room temperature for 3 hours.
Assay signal was generated through a single addition of 12.5 or 15 μL (50% v/v) of PathHunter Detection reagent cocktail for agonist and antagonist assays respectively, followed by a one hour incubation at room temperature. Microplates were read following signal generation with a PerkinElmer Envision™ instrument for chemilumine-scent signal detection.
Compound activity was analyzed using CBIS data analysis suite (ChemInnovation, CA). Percentage inhibition was calculated using the following formula: % Inhibition=100%×(1−(mean RLU of test sample−mean RLU of vehicle control)/(mean RLU of EC80 control−mean RLU of vehicle control)). The activity for representative examples of the invention is shown in the following table, wherein A: IC50≤500 nM; B: 500 nM<IC50≤2 μM; C: […]≤10 μM; D: IC50>[…].
Target sequence in this assay (P08069 31-1367, species assumed): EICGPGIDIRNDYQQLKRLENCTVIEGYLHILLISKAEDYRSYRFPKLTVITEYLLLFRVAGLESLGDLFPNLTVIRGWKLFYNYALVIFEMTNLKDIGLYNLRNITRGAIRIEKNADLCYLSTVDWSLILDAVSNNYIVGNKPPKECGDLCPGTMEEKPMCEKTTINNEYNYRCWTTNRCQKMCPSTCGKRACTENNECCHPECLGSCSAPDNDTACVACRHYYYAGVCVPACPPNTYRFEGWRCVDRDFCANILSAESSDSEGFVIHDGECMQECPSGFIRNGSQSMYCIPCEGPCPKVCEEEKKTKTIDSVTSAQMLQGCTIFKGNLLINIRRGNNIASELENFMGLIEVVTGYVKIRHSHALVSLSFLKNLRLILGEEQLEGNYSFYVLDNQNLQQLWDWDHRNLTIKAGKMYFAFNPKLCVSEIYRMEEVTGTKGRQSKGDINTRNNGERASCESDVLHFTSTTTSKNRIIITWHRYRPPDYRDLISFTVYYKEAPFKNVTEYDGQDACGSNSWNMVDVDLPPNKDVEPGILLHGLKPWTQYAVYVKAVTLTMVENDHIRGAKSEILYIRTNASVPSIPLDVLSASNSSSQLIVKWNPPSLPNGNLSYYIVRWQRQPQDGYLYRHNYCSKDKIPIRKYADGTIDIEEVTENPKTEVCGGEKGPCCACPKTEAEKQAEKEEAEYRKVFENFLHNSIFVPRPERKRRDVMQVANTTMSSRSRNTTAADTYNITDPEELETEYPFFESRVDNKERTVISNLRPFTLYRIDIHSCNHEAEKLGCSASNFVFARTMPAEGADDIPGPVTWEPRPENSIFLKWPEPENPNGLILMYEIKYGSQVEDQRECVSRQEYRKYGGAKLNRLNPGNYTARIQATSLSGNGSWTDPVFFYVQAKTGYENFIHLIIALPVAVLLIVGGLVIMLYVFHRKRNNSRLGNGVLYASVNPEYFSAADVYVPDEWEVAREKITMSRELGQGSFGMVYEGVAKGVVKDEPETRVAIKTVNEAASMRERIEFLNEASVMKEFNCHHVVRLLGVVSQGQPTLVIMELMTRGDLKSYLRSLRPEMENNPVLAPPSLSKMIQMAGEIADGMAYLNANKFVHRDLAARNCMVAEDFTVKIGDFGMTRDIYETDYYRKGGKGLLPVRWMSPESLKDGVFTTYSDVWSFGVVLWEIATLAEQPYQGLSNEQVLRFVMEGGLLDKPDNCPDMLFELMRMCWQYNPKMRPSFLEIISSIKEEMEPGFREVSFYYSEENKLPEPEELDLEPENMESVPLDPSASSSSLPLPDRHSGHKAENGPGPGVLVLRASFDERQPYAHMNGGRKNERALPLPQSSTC

IGF-1R [2] = target: T1, IGF-1R; assay: Example B-1: IGF-1R Assay (PC3 cells, IGF1 stimulation, AlphaLISA); format: cell-based; conditions: 200 ng/mL IGF1 stimulation, read-out: Biological Activity against IGF-1R IC50
Method in brief: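 Readout is AlphaLISA signal from lysed PC3 cells, expressed as % inhibition versus vehicle and EC80 controls and banded by IC50. Before lysis, the cells were starved of serum for 2 h, exposed to 3× serially diluted compound for 2 h, and stimulated for 30 min with 200 ng/mL IGF1 (final).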
Target sequence in this assay (P08069 31-1367): as the sequence (P08069 31-1367, species assumed) above

Structure (SMILES)	pIC50 (IGF-1R [1])	pIC50 (IGF-1R [2])
CN(C)CC1CN(C)c2cc(Nc3nccc(Nc4cnc5cc(F)c(F)cc5c4)n3)ccc2O1 (stereo not drawn) [Compound 148, N4-(6,7-difluoroquinolin-3-yl)-N2-(2-((dimethylamino)methyl)-4-methyl-3,4-dihydro-2H-benzo[b][1,4]oxazin-6-yl)pyrimidine-2,4-diamine]	≥ 6.30	≥ 6.30
CN(C)CC(=O)N1CCOc2ccc(Nc3nccc(Nc4cnc5cc(F)c(F)cc5c4)n3)cc21 [Compound 149, 1-(6-((4-((6,7-difluoroquinolin-3-yl)amino)pyrimidin-2-yl)amino)-2,3-dihydro-4H-benzo[b][1.4]oxazin-4-yl)-2-(dimethylamino)ethan-1-one]	≥ 6.30	≥ 6.30
CN1CCOc2ccc(Nc3nccc(Nc4cnc5cc(F)c(F)cc5c4)n3)cc21 [Compound 150, N4-(6,7-difluoroquinolin-3-yl)-N2-(4-methyl-3,4-dihydro-2H-benzo[b][1,4]oxazin-6-yl)pyrimidine-2,4-diamine]	5.70 to 6.30	5.70 to 6.30
CN(C)CC(=O)N1CCOc2cc(Nc3nccc(Nc4cnc5cc(F)c(F)cc5c4)n3)ccc21 [Compound 152, 1-(7-((4-((6,7-difluoroquinolin-3-yl)amino)pyrimidin-2-yl)amino)-2,3-dihydro-4H-benzo[b][1.4]oxazin-4-yl)-2-(dimethylamino)ethan-1-one]	≥ 6.30	≥ 6.30
COc1cc(Nc2nccc(Nc3cnc4cc(F)c(F)cc4c3)n2)c(Cl)cc1O[C@H]1C[C@@H](N(C)C)C1 [Compound 153, N2-(2-chloro-4-((1s,3s)-3-(dimethylamino)cyclobutoxy)-5-methoxyphenyl)-N4-(6,7-difluoroquinolin-3-yl)pyrimidine-2,4-diamine]	≥ 6.30	≥ 6.30
COc1cc(Nc2nccc(Nc3cc4cccc(F)c4[nH]c3=O)n2)cnc1N1CCC(C)(O)CC1 [Compound 159, 8-fluoro-3-((2-((6-(4-hydroxy-4-methylpiperidin-1-yl)-5-methoxypyridin-3-yl)amino)pyrimidin-4-yl)amino)quinolin-2(1H)-one]	5.70 to 6.30	≥ 6.30
COc1cc(Nc2nccc(Nc3cnc4ccc(C(F)F)cc4c3)n2)ccc1O[C@H]1C[C@H](N(C)C)C1 [Compound 162, 4-[6-(difluoromethyl)-3-quinolylamino]-2-{3-methoxy-4-[(1r,3r)-3-(dimethylamino)cyclobutoxy]phenylamino}pyrimidine]	5.70 to 6.30	≥ 6.30
CN(C)CC1COc2cc(Nc3nccc(Nc4cnc5cc(F)c(F)cc5c4)n3)ccc2O1 (stereo not drawn) [Compound 169, 4-(6,7-difluoro-3-quinolylamino)-2-{2-[(dimethylamino)methyl]-2,3-dihydro-1,4-benzodioxin-6-ylamino}pyrimidine]	≥ 6.30	≥ 6.30
Clc1ccc2ncc(Nc3ccnc(Nc4ccc5c(c4)OCCO5)n3)cc2c1 [Compound 170, 4-(6-chloro-3-quinolylamino)-2-(2,3-dihydro-1,4-benzodioxin-6-ylamino)pyrimidine]	5.70 to 6.30	5.70 to 6.30
CN(C)CC1COc2cc(Nc3nccc(Nc4cc5ccccc5nc4C(N)=O)n3)ccc2O1 (stereo not drawn) [Compound 171, 3-((2-((2-((dimethylamino)methyl)-2,3-dihydrobenzo[b][1,4]dioxin-6-yl)amino)pyrimidin-4-yl)amino)quinoline-2-carboxamide]	≥ 6.30	≥ 6.30
CN(C)CC1COc2cc(Nc3nccc(Nc4cnc5ccc(Cl)cc5c4)n3)cnc2O1 (stereo not drawn) [Compound 177, 4-(6-chloro-3-quinolylamino)-2-{3-[(dimethylamino)methyl]-2,3-dihydro-1,4-dioxa-5-aza-7-naphthylamino}pyrimidine]	≥ 6.30	≥ 6.30
CN(C)CC1COc2cc(Nc3nccc(Nc4cnc5ccccc5c4)n3)cnc2O1 (stereo not drawn) [Compound 178, 2-{3-[(dimethylamino)methyl]-2,3-dihydro-1,4-dioxa-5-aza-7-naphthylamino}-4-(3-quinolylamino)pyrimidine]	≥ 6.30	≥ 6.30
